Experiments:
C57bl/6J female mice [1] = assay: Risperidone treatment for 60 days, weight gain in mice; assay type: in vivo; conditions: risperidone for 60 days, vs control
Experimental: Shotgun metagenomic sequencing data (MiSeq, 2×250, high yield) from stool DNA were analyzed on the Anvi'o visualization platform. Bacterial genomes were refined to either genus or species level and ordered as slices within a ring by gene similarity (hierarchical clustering with a Hidden Markov Model).

gut microbiome = conditions: risperidone; cited from earlier work
C57bl/6J female mice [2] = assay: Supplementation with L. reuteri (daily gavage) with or without risperidone in drinking water: body mass and visceral fat pads; assay type: in vivo; conditions: risperidone-treated mice, 64 days, relative to risperidone plus L. reuteri lacking reutericyclin production; Wilcoxon p<0.05

Cc1nc2n(c(=O)c1CCN1CCC(c3noc4cc(F)ccc34)CC1)CCCC2 [risperidone]
weight gain (C57bl/6J female mice [1]): statistically significant weight gain
growth of organisms under anaerobic conditions (gut microbiome): selectively suppressed growth of organisms under anaerobic conditions

CCCCCCC/C=C/C(=O)N1C(O)=C(C(C)=O)C(=O)[C@H]1CC(C)C [reutericyclin, (5R)-1-(2-decenoyl)-2-hydroxy-3-acetyl-5-isobutyl-Δ2-pyrroline-4-one]
weight gain (body mass increase) (C57bl/6J female mice [2]): prevents weight gain

— patent publication US11116748B2, “Compositions and methods for reducing weight gain” (THE MEDICAL COLLEGE OF WISCONSIN, INC., priority 2018, dated 2021)
